Laboratory results published in ChEMBL document CHEMBL1150212, “Antitumor agents, 129. Tannins and related compounds as selective cytotoxic agents” (1992).

How the values were obtained:
Type in all cases: functional
Conditions in all cases: read-out: ED50 (the source's name)
HCT-8 = experiment: Cytotoxicity against human HCT8 cells by tetrazolium salt-based colorimetric assay
TE-671 = experiment: Cytotoxicity against human TE671 cells by tetrazolium salt-based colorimetric assay
KB = experiment: Cytotoxicity against human KB cells by tetrazolium salt-based colorimetric assay
A549 = experiment: Cytotoxicity against human A549 cells by tetrazolium salt-based colorimetric assay
[1] = Cytotoxicity against human […] cells by tetrazolium salt-based colorimetric assay

SMILES | EC50 (HCT-8) | EC50 (TE-671) | EC50 (KB) | EC50 (A549) | EC50 [1]
O=C(O[C@@H]1O[C@@H]2COC(=O)c3cc(O)c(O)c(O)c3-c3c(cc(O)c(O)c3O)C(=O)O[C@H]2[C@@H]2OC(=O)c3cc(O)c(O)c(O)c3-c3c(cc(O)c(O)c3O)C(=O)O[C@@H]12)c1cc(O)c(O)c(O)c1 | > 10 µg/mL | > 10 µg/mL | > 10 µg/mL | > 10 µg/mL | 0.21 µg/mL
O=C(OC[C@H]1OC(O)[C@@](O)(COC(=O)c2cc(O)c(O)c(O)c2)[C@@H]1OC(=O)c1cc(O)c(O)c(O)c1)c1cc(O)c(O)c(O)c1 (stereo not given in full) | > 10 µg/mL | > 10 µg/mL | > 10 µg/mL | > 10 µg/mL | > 10 µg/mL
O=C(O)C1=C[C@@H](O)[C@@H](O)[C@H](OC(=O)c2cc(O)c(O)c(OC(=O)c3cc(O)c(O)c(O)c3)c2)C1 | > 10 µg/mL | > 10 µg/mL | > 10 µg/mL | > 10 µg/mL | > 10 µg/mL
O=C1O[C@H]2[C@H](O)[C@@H](OC(=O)c3cc(O)c(O)c4c3[C@@H]3C1=CC(=O)C(O)(O)C3(O)O4)[C@H](OC(=O)c1cc(O)c(O)c(O)c1)O[C@@H]2CO (stereo not given in full) [FUROSIN] | > 10 µg/mL | > 10 µg/mL | > 10 µg/mL | > 10 µg/mL | 0.67 µg/mL
O=C(O[C@@H]1O[C@H](CO)[C@@H](O)[C@H](O)[C@H]1O)c1cc(O)c(O)c(O)c1 | > 10 µg/mL | > 10 µg/mL | > 10 µg/mL | > 10 µg/mL | > 10 µg/mL
O=C(OC[C@H]1O[C@@H](OC(=O)c2cc(O)c(O)c(O)c2)[C@H](OC(=O)c2cc(O)c(O)c(O)c2)[C@@H](OC(=O)c2cc(O)c(O)c(O)c2)[C@@H]1OC(=O)c1cc(O)c(O)c(O)c1)c1cc(O)c(O)c(O)c1 [PENTAGALLOYL GLUCOSE] | > 10 µg/mL | > 10 µg/mL | > 10 µg/mL | > 10 µg/mL | 5.01 µg/mL
Oc1cc(O)c2c(c1)O[C@H](c1ccc(O)c(O)c1)[C@H](O)C2 [(-)-EPICATECHIN] | > 10 µg/mL | > 10 µg/mL | > 10 µg/mL | > 10 µg/mL | > 10 µg/mL
O=C1OC[C@H]2OC(=O)c3cc(O)c(O)c(O)c3-c3c(O)c(O)c(O)c4c3C(=O)O[C@H]([C@H]3OC(=O)c5c-4c(O)c(O)c(O)c5[C@@H]3C3(O)OC[C@H](O)[C@@H](O)[C@H]3O)[C@@H]2OC(=O)c2cc(O)c(O)c(O)c2-c2c1cc(O)c(O)c2O (stereo not given in full) [GRANDININ] | > 10 µg/mL | > 10 µg/mL | > 10 µg/mL | > 10 µg/mL | 0.1 µg/mL
O=C(O[C@@H]1[C@@H](c2c(O)cc(O)c3c2O[C@H](c2ccc(O)c(O)c2)[C@H](OC(=O)c2cc(O)c(O)c(O)c2)C3)c2c(O)cc(O)c([C@H]3c4c(O)cc(O)cc4O[C@H](c4ccc(O)c(O)c4)[C@@H]3OC(=O)c3cc(O)c(O)c(O)c3)c2O[C@@H]1c1ccc(O)c(O)c1)c1cc(O)c(O)c(O)c1 | > 10 µg/mL | > 10 µg/mL | > 10 µg/mL | > 10 µg/mL | 3.05 µg/mL
